{"source": "patent US20130053407A1", "about": "“PYRROLO [3,2-D] PYRIMIDIN-3-YL DERIVATIVES USED AS ACTIVATORS OF AMPK” (GlaxoSmithKline LLC, priority 2010, published 2013)", "key": {"Human recombinant AMPK": {"system": "Human recombinant AMPK", "assay": "AMPK Enzymatic Assay (Z'Lyte FRET)", "assay_type": "biochemical", "settings": "AMPK activation, ATP 100 μM, peptide 2 μM, means of at least 2 independent experiments", "method": "Human recombinant AMPK (Invitrogen #PV4673 & #PV4675) is used in a FRET assay format (Z'Lyte—Invitrogen). Assay conditions are as follow: ATP 100 μM, peptide (Invitrogen #PR8650) 2 μM, 1% final DMSO in Z'Lyte kinase buffer. Reaction is initiated by addition of 0.2-0.8 ng of AMPK and incubated for 1-hour @ 30° C. A further 1-hour incubation @ 30° C. with the development reagent (Invitrogen #PR5194) is performed. FRET signal is then measured and converted to “% peptide phosphorylation” according to Z′Lyte given calculation procedure. Evaluation of compounds is carried out using concentration-response curves. Final data are expressed in “% activation” calculating the ratio of “% peptide phosphorylation” between compound-condition and basal-condition. […] All data are means of at least 2 independent experiments."}, "ob/ob and db/db mice": {"system": "ob/ob and db/db mice", "settings": "8 day AICAR administration; cited from earlier work"}}, "data": [{"smiles": "COc1cccc(-c2ccc(-n3c(Cl)cc4[nH]c(=O)n(-c5cccc(F)c5)c(=O)c43)cc2)c1O", "note": "[6-Chloro-3-(3-fluorophenyl)-5-[2′-hydroxy-3′-(methyloxy)-4-biphenylyl]-1H-pyrrolo[3,2-d]pyrimidine-2,4(3H,5H)-dione]", "values": [{"measurement": "pEC50", "setting": "Human recombinant AMPK", "result": 5.3}]}, {"smiles": "Cc1cccc(-c2ccc(-n3c(Cl)cc4[nH]c(=O)n(-c5ccc(C#N)cc5)c(=O)c43)cc2)c1O", "note": "[4-[6-Chloro-5-(2′-hydroxy-3′-methyl-4-biphenylyl)-2,4-dioxo-1,2,4,5-tetrahydro-3H-pyrrolo[3,2-d]pyrimidin-3-yl]benzonitrile]", "values": [{"measurement": "pEC50", "setting": "Human recombinant AMPK", "result": 5.4}]}, {"smiles": "NC(=O)c1ncn([C@@H]2O[C@H](CO)[C@@H](O)[C@H]2O)c1N", "note": "[AICAR]", "values": [{"measurement": "reduces blood glucose", "setting": "ob/ob and db/db mice", "result": 35, "unit": "%"}]}]}
